Consider twelve compounds from PubChem BioAssay (NCI).

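Values below derive from 48-hour exposures of cells grown in 96-well plates, with endpoints linearly interpolated between the two concentrations bracketing the appropriate inhibition level. TGI: total growth inhibition.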

Some test systems named below: IGROV1 ovarian; MOLT-4 leukemia; UACC-62 melanoma; RXF 393 renal; HOP-92 NSCLC; 786-0 renal; HT29 colon; MDA-MB-231 breast; SF-268 CNS; MDA-MB-435; COLO 205 colon; HS 578T breast; LOX IMVI melanoma.
Holding throughout (experiment): NCI anticancer screen, dose series, 48 h

For `Cc1ccc(S(=O)(=O)NNC(=S)Nc2cccc3ccccc23)cc1`, the TGI is greater than 100 µM in the experiment with IGROV1 ovarian; greater than 100 µM in the experiment on MOLT-4 leukemia; greater than 100 µM with UACC-62 melanoma; greater than 100 µM in the experiment with RXF 393 renal; 86 µM with HOP-92 NSCLC; greater than 100 µM with 786-0 renal. In addition, the TGI in the experiment with HT29 colon, in the experiment on MDA-MB-231 breast, in the experiment on SF-268 CNS, in the experiment with MDA-MB-435, in the experiment on COLO 205 colon and in the experiment with HS 578T breast was greater than 100 µM each time.

On to `Cc1ccccc1N(C)S(=O)(=O)c1ccccc1[N+](=O)[O-]`, for which the TGI in the experiment with IGROV1 ovarian is greater than 100 µM; in the experiment on MOLT-4 leukemia, greater than 100 µM; in the experiment on UACC-62 melanoma, greater than 100 µM; in the experiment on RXF 393 renal, 83 µM; in the experiment with 786-0 renal, greater than 100 µM; with HT29 colon it was greater than 100 µM. The TGI in the experiment on MDA-MB-231 breast, with SF-268 CNS, in the experiment on MDA-MB-435, with COLO 205 colon, in the experiment with HS 578T breast and in the experiment on LOX IMVI melanoma was greater than 100 µM throughout.

For `CC1N(C)C(=O)OC12CCN(CCCC(=O)c1ccc(F)cc1)CC2` (centres undefined), the TGI with IGROV1 ovarian, with MOLT-4 leukemia, in the experiment on UACC-62 melanoma, in the experiment on RXF 393 renal, in the experiment with 786-0 renal and in the experiment with HT29 colon was greater than 100 µM throughout. The TGI in the experiment with MDA-MB-231 breast, in the experiment with SF-268 CNS, in the experiment on MDA-MB-435, with COLO 205 colon, in the experiment with HS 578T breast and with LOX IMVI melanoma was greater than 100 µM each time.

With `Cc1c2c(n(CCc3ccccc3)c1C)NN=C(C#N)S2(=O)=O`, the TGI in the experiment on IGROV1 ovarian, in the experiment on MOLT-4 leukemia, in the experiment on UACC-62 melanoma, in the experiment with 786-0 renal, in the experiment with HT29 colon and with MDA-MB-231 breast was greater than 100 µM throughout. Also, the TGI with SF-268 CNS, in the experiment on MDA-MB-435, with COLO 205 colon, in the experiment with HS 578T breast and in the experiment with LOX IMVI melanoma was greater than 100 µM throughout.

`CC(C)CCC[C@@H](C)C1CCC2[C@@H]3CCC4CC(CCC=C(c5cc(Cl)c(OC(=O)c6ccccc6)c(C(=O)O)c5)c5cc(Cl)c(OC(=O)c6ccccc6)c(C(=O)O)c5)CC[C@]4(C)C3CC[C@@]21C` (some centres undefined): the TGI is 94.3 µM in the experiment on IGROV1 ovarian; greater than 100 µM in the experiment with MOLT-4 leukemia; greater than 100 µM in the experiment with UACC-62 melanoma; greater than 100 µM with RXF 393 renal; 73.3 µM with HOP-92 NSCLC; 75.2 µM in the experiment with 786-0 renal. Besides, the TGI was greater than 100 µM with HT29 colon; 26.5 µM with MDA-MB-231 breast; greater than 100 µM with MDA-MB-435; greater than 100 µM in the experiment on COLO 205 colon; greater than 100 µM in the experiment with HS 578T breast.

Consider `CC1(C)C(=O)N=C(N)N1C(=O)OCc1ccccc1`, for which the TGI in the experiment on IGROV1 ovarian, with MOLT-4 leukemia, in the experiment on UACC-62 melanoma, in the experiment on HOP-92 NSCLC, in the experiment with 786-0 renal and in the experiment with HT29 colon was greater than 100 µM each time. Further, the TGI in the experiment with MDA-MB-231 breast, with SF-268 CNS, in the experiment on MDA-MB-435, with COLO 205 colon, with HS 578T breast and in the experiment on LOX IMVI melanoma was greater than 100 µM each time.

`C=CCOCn1ccc(=O)[nH]c1=O`: the TGI in the experiment on IGROV1 ovarian, in the experiment on MOLT-4 leukemia, with UACC-62 melanoma, in the experiment on 786-0 renal, in the experiment on HT29 colon and with MDA-MB-231 breast was greater than 100 µM throughout. Further, the TGI in the experiment on SF-268 CNS, in the experiment on MDA-MB-435, in the experiment with COLO 205 colon, in the experiment on HS 578T breast and with LOX IMVI melanoma was greater than 100 µM in each case.

With `CC(=O)Nc1ccc2c(C)c3c4ccccc4n(C)c3nc2n1`, the TGI with IGROV1 ovarian was greater than 100 µM; in the experiment on MOLT-4 leukemia it was 32.1 µM; with UACC-62 melanoma it was 69 µM; in the experiment with RXF 393 renal it was 34.6 µM; in the experiment with 786-0 renal it was 35.3 µM; with HT29 colon it was greater than 100 µM. In addition, the TGI with MDA-MB-231 breast worked out at 41.2 µM; in the experiment on SF-268 CNS, 64.4 µM; in the experiment with MDA-MB-435, 45.7 µM; with COLO 205 colon, 30.9 µM; with HS 578T breast, 50.2 µM; with LOX IMVI melanoma it was 34.2 µM.

In the case of `CSc1cc(Cl)c(C)cc1S(=O)(=O)NC(=O)NNc1ccc(F)c(Cl)c1`, the TGI in the experiment on IGROV1 ovarian, in the experiment with MOLT-4 leukemia, in the experiment with RXF 393 renal, in the experiment on 786-0 renal, in the experiment on HT29 colon and in the experiment on MDA-MB-231 breast was greater than 100 µM each time. Moreover, the TGI with SF-268 CNS, in the experiment on MDA-MB-435, with COLO 205 colon, in the experiment on HS 578T breast and in the experiment with LOX IMVI melanoma was greater than 100 µM throughout.

Regarding `COC1OC(CO)C(O)C(OC(=O)c2cc(O)c(O)c(O)c2)C1OC(=O)c1cc(O)c(O)c(O)c1` (centres undefined), the TGI in the experiment on IGROV1 ovarian, in the experiment on MOLT-4 leukemia, in the experiment on RXF 393 renal, with 786-0 renal, in the experiment on HT29 colon and with MDA-MB-231 breast was greater than 100 µM in each case. For the same compound, the TGI in the experiment with SF-268 CNS is greater than 100 µM; in the experiment on MDA-MB-435 it was greater than 100 µM; in the experiment on COLO 205 colon, greater than 100 µM; in the experiment with HS 578T breast, greater than 100 µM; with LOX IMVI melanoma, 68.2 µM.

With `O=[N+]([O-])C(=C(N1CCOCC1)N1CCOCC1)/C(Cl)=C(\Cl)[N+](=O)[O-]`, the TGI in the experiment with IGROV1 ovarian was 2.78 µM; in the experiment with MOLT-4 leukemia it was greater than 100 µM; with UACC-62 melanoma, 34.8 µM; in the experiment on RXF 393 renal, 3.89 µM; with 786-0 renal, 9.76 µM; in the experiment on HT29 colon, 8.26 µM. Also, the TGI in the experiment with MDA-MB-231 breast stood at 10.1 µM; with SF-268 CNS, 22.9 µM; in the experiment on MDA-MB-435, 23.1 µM; in the experiment on COLO 205 colon, 7.62 µM; in the experiment with HS 578T breast, 16.6 µM; in the experiment with LOX IMVI melanoma, 5.19 µM.

On to `COC(=O)[C@H](Cc1ccccc1)NC(=O)N1CCN(C(=O)N[C@@H](Cc2ccccc2)C(=O)OC)CCN(C(=O)N[C@@H](Cc2ccccc2)C(=O)OC)CC1`, for which the TGI in the experiment on IGROV1 ovarian, in the experiment with MOLT-4 leukemia, with UACC-62 melanoma, in the experiment on RXF 393 renal, in the experiment with HOP-92 NSCLC and in the experiment with 786-0 renal was greater than 100 µM each time. Further, the TGI in the experiment on HT29 colon, in the experiment on SF-268 CNS, in the experiment with MDA-MB-435, with COLO 205 colon, in the experiment on HS 578T breast and in the experiment on LOX IMVI melanoma was greater than 100 µM each time.
